Where “and” joins values, the source holds several entries; their conditions need not be identical. Identical values can stand only once.

Experimental findings from patent US6696484B2, “Method and compositions for regulation of 5-alpha reductase activity” (University of Chicago Office of Technology and Intellectual …, priority 1997, dated 2004) are described below.

The test system of assay [1] is hamster flank organ. Briefly: Testosterone-stimulated growth of the pigmented macules of hamster flank organs.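 As to all read-outs here: prepubertal Syrian golden hamsters castrated at 4 weeks, ethanol vehicle on one flank organ, macule long and short axes gauged by caliper 1 day after final dose.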 It is filed as in vivo, Syrian golden hamsters. The settings on record: 0.5 μg testosterone + 1 mg compound topically daily, 18 days; for Pigmented macule area: castrated male hamsters, mean±SEM.
Assay [2] deals with T1, type 1 human 5α-reductase (Homo sapiens, UniProt P18405).
T1 sequence (P18405 1-259): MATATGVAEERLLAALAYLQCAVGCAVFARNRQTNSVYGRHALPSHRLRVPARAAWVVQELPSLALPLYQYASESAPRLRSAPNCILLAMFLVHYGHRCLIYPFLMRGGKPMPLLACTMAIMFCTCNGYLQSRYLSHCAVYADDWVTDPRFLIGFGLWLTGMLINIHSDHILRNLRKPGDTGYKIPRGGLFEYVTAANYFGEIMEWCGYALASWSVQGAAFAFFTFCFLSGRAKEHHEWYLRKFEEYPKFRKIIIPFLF
Briefly: Whole-cell assay of 5α-reductase, type 1. It is filed as cell-based. Set-up: expressed in transfected cells; host or cells: rat 1A cells infected with pMV7 retrovirus and selected with G418; microsomes for the cell-free assay, intact cells for the whole-cell assay. To be noted: for IC50: rat 1A cells expressing human type 1 5α-reductase.

For assay [3], the target named is T2, type 2 human 5α-reductase (Homo sapiens, UniProt P31213).
T2 sequence (P31213 1-254): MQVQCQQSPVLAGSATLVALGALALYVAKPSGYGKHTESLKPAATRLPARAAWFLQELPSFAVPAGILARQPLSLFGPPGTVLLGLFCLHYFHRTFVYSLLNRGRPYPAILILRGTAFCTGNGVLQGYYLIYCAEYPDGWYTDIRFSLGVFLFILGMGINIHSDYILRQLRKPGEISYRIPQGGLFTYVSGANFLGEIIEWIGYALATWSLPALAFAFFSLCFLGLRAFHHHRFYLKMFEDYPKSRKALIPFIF
Kind of assay: Cell-free enzymatic assay of 5α-reductase (testosterone to DHT), type 2. It is filed as biochemical. Also noted: expressed in transfected cells; host or cells: rat 1A cells infected with pMV7 retrovirus and selected with G418; microsomes for the cell-free assay. To be noted: for inhibition at 100 µM: read-out: percent inhibition of 5α-reductase activity, cell-free assay, Type 2, 100 μM compound; for IC50: microsomes from rat 1A cells expressing human type 2 5α-reductase, read-out: Cell-free assay IC50, 5α-reductase Type 2.

For assay [4], the target named is T1, type 1 human 5α-reductase. Briefly: Cell-free enzymatic assay of 5α-reductase (testosterone to DHT), type 1. To be noted: for percent inhibition of 5α-reductase activity, cell-free assay, Type 1: 100 μM compound; for inhibition at 100 µM: read-out: percent inhibition of 5α-reductase activity, cell-free assay, Type 1, 100 μM compound.
The target in assay [5] is T2, type 2 human 5α-reductase. Kind of assay: Whole-cell assay of 5α-reductase, type 2. It is filed as cell-based. Also noted: expressed in transfected cells; host or cells: rat 1A cells infected with pMV7 retrovirus and selected with G418; intact cells for the whole-cell assay. The settings on record: rat 1A cells expressing human type 2 5α-reductase.
For another assay, the system named is 5α-reductase. Briefly: Cell-free 5α-reductase assay, isozyme not given. It is filed as biochemical, human. The settings on record: isozyme not stated.
Assay [6] relates to hamster flank organ. Kind of assay: DHT-stimulated growth of the pigmented macules of hamster flank organs. It is filed as in vivo, Syrian golden hamsters. As for the experimental part: Prepubertal male Syrian golden hamsters, castrated at 4 weeks of age, were obtained from Harlan Sprague-Dawley Co. (Madison, Wis.). Bilateral orchiectomy was performed under anesthesia. The hamsters were housed individually in plastic cages and had free access to Purina rodent chow and water, and were maintained on a 12-h light/12-h dark cycle. Hamsters were used 1-2 weeks after castration and were divided into groups of 4-6 or 9-11 animals. Hair on the lower back of each animal was shaved weekly with an electric hair clipper to expose the flank organs. A treatment solution (5 μl with ethanol as vehicle) was applied topically to the flank organ once a day using a Pipetteman and a polypropylene disposable tip. The treatment solution contained either (a) ethanol alone, (b) an androgen (testosterone or DHT), (c) a test compound, or (d) a combination of an androgen and a test compound. For each hamster, one flank organ was treated while the other organ was not treated. The surface of the flank organ was wiped with an alcohol pad to remove residual compound before each treatment. At the end of each experiment (18 days), animals were killed by CO2 asphyxiation or an intraperitoneal injection of […]. Flank organs from both the treated and untreated sides were examined 1 day after the last treatment by the methods described below. The body weight of each animal was recorded before and after treatment. Experiments were repeated at least twice to assure reproducibility. The “Guide for the care and use of laboratory animals” (NIH publication no. 85-28, revised 1988) and the regulations of the U.S. Department of Agriculture were followed throughout the experiments.
In this study, the growth of the flank organ was determined by measuring the length of the long axis and the short axis of the pigmented spot (pigmented macule) with a caliper with a digital display (Digimatic; Mitutoyo Corporation, Japan). The surface area (in millimeters squared) of the spot was calculated as the product of the long axis and the short axis (Gomez and Frost 1975). The areas of the pigmented spots after treatment with ethanol alone or with test compound (in ethanol) alone were less than 10% of the areas of the pigmented spots after treatment with testosterone alone. These values were deducted from the experimental values and are compared in Tables 8-10. For each experiment, the means and standard error of the means (SEM) of the areas of the untreated and treated macules were computed separately for each treatment group. Within each experiment, an overall F-test (one way ANOVA) was used to test the null hypothesis that the mean sizes of the treated macules were the same in all groups, and Dunnett's multiple range test was used to examine differences between the treatment groups (i.e., green tea catechin+androgen, fatty acid+androgen, EGC derivative+androgen, or fatty acid derivative+androgen) and the control group (androgen treatment only). The Mann-Whitney test was used to examine differences between DHT-treated and the DHT and EGCG-treated groups. P-values <0.05 were taken as indicating statistical significance in all tests (Hochberg and Tamhane 1987).
Each group comprised four to six castrated male hamsters. At the end of the treatment period, the areas of the pigmented macules were determined and are presented as means±SEM in Table 8.
Each group comprised four to six castrated male hamsters. At the end of the treatment period, the areas of the pigmented macules were determined and are expressed as means±SEM as shown in Table 10.

As to `CCCCC/C=C\C/C=C\C/C=C\CCCCC(=O)O` [Gamma-Linolenic Acid, Gamma-Linolenic Acid C18:3 CIS 6.9,12], in the assay on hamster flank organ [1], the “Inhibition (percent decrease in macule area vs androgen-treated macules)” value stood at 82% and the Pigmented macule area was determined as 3.15 ± 0.42 mm^2.

Turning to `CC(Cc1ccc(O)c(O)c1)C(C)Cc1ccc(O)c(O)c1` (stereo not drawn) [Nordihydroguaiaretic acid], the IC50 in assay [2] and in assay [4] was 19 µM in each case. Further, in assay [3], the inhibition (commonly the share of the control response that was lost under treatment) at 100 µM was found to be 80%.

`C=CCc1ccc(O)c(OC)c1` [Eugenol]: the IC50 – broadly, the midpoint of a concentration-inhibition curve – in assay [3] is 100 µM.

For the molecule `CCCC/C=C\CCCCCCCC(=O)O[C@@H]1Cc2c(O)cc(O)cc2O[C@@H]1c1cc(O)c(O)c(O)c1` [EGC-myristoleate, EGC-3-myristoleate], the IC50 in assay [2] and in assay [5] was less than 15 µM each time. For the same molecule, the “Inhibition (percent decrease in macule area vs androgen-treated macules)” value in the assay on hamster flank organ [1] is given as 71%; in the assay on hamster flank organ [1] (listed as EGC-3 ester of MA), “about 70%”. Further, in the assay with hamster flank organ [1], the Pigmented macule area came out at 5.00 ± 0.42 mm^2.

`COc1cc(CCC(=O)CC(=O)CCc2ccc(O)cc2)ccc1O` [Demethoxytetrahydrocurcumin, demethoxytetrahydrocurcumin]: in assay [4], the “percent inhibition of 5α-reductase activity, cell-free assay, Type 1” value is reported as 23%.

In the case of “cis or traps-9,11 or 10,12 octadecadienoic acid [Conjugated Octadecadienonic Acid]”, in assay [3] (100 μM compound), the “percent inhibition of 5α-reductase activity, cell-free assay, Type 2” value amounted to 81%. The IC50 in assay [3] stood at 30 µM; in assay [4] (read-out: Cell-free assay IC50, 5α-reductase Type 1, microsomes from rat 1A cells expressing human type 1 5α-reductase), 10 µM. Further, in assay [4], the “percent inhibition of 5α-reductase activity, cell-free assay, Type 1” value stood at 99%.

On to `O=C1c2ccccc2C(=O)c2ccccc21` [Anthraquinone], for which the IC50 in the assay on 5α-reductase is greater than 100 µM.

With `C[C@]12CCC(=O)C[C@@H]1CC[C@@H]1[C@@H]2CC[C@]2(C)[C@@H](O)CC[C@@H]12` [DHT, 5α-dihydrotestosterone, reference compound], the “Pigmented macule area, androgen alone (control)” value with hamster flank organ [6] (0.5 μg DHT alone topically daily, 18 days, mean±SEM) is 20.80 ± 1.10 mm^2 and 13.67 ± 0.96 mm^2. Further, in the assay on hamster flank organ [6] (0.5 μg DHT per flank organ per day), the “stimulation of flank organ growth relative to the maximum stimulation” value is listed as 50-70%.

Regarding `O=c1cc(-c2ccccc2)oc2cc(O)cc(O)c12` [Chrysin], the results for the inhibition at 100 µM in assay [3] and in assay [4] were 1% and 2%, respectively.

As for `COc1cc2ccc(=O)oc2c(O)c1O` [Fraxetin, 7,8-dihydroxy-6-methoxycoumarin], the inhibition at 100 µM in assay [3] came out at 8%; in assay [4], 2%. Further, in the assay on 5α-reductase, the IC50 was greater than 100 µM.

Take `O=c1ccc2c(-c3ccccc3S(=O)(=O)O)c3ccc(O)c(O)c3oc-2c1O` [Pyrogallol red, pryrogallolsulfonephthalein]: the inhibition at 100 µM in assay [3] came out at 27%; in assay [4], 97%.

For the molecule `C[C@@H]1O[C@@H](OC[C@H]2O[C@@H](Oc3c(-c4ccc(O)c(O)c4)oc4cc(O)cc(O)c4c3=O)[C@H](O)[C@@H](O)[C@@H]2O)[C@H](O)[C@H](O)[C@H]1O` [Rutin], the results for the inhibition at 100 µM in assay [3] and in assay [4] were 0% and 4%, respectively.

In the case of `COc1cc(/C=C/CO)ccc1O` [Coniferol, coniferyl alcohol], in assay [3], the IC50 came out at 100 µM and the inhibition at 100 µM was 49%. Moreover, in assay [4], the inhibition at 100 µM came to 10%.

On to `O=C1c2ccccc2C(=O)c2c(O)c(O)cc(O)c21` [Purpurin], for which the inhibition at 100 µM in assay [3] is 20%; in assay [4], 95%.

`COc1cc(/C=C/C(=O)CC(=O)/C=C/c2ccc(O)c(OC)c2)ccc1O` [Curcumin]: the “Inhibition (percent decrease in macule area vs androgen-treated macules)” value with hamster flank organ [6] (0.5 μg DHT + 1 mg compound topically daily, 18 days) amounted to 31%; with hamster flank organ [1], 87%. Further, the Pigmented macule area amounted to 9.50 ± 0.21 mm^2 with hamster flank organ [6] (0.5 μg DHT + 1 mg compound topically daily, 18 days, mean±SEM) and 2.40 ± 0.65 mm^2 with hamster flank organ [1].

Take `O=c1c(O)cccc2cc(O)c(O)c(O)c12` [Purpurogallin]: the inhibition at 100 µM in assay [3] was found to be 31%; in assay [4], 81%.

In the case of `O=c1ccc2cc(O)c(O)cc2o1` [Esculetin, 6,7-dihydroxycoumarin], the figures for the inhibition at 100 µM in assay [3] and in assay [4] were 13% and 7%, respectively. Also, the IC50 in the assay on 5α-reductase was greater than 100 µM.

As to `CCCCC/C=C\C/C=C\C/C=C\CCCCC(=O)O[C@@H]1Cc2c(O)cc(O)cc2O[C@@H]1c1cc(O)c(O)c(O)c1` [EGC-γ-linoleneate acid, EGC-γ-linoleneate], the IC50 in assay [2] and in assay [5] was less than 15 µM in each case. Besides, the “Inhibition (percent decrease in macule area vs androgen-treated macules)” value with hamster flank organ [1] was 68%; with hamster flank organ [1] (listed as EGC-3 ester of γ-LA), “about 70%”. Further, the Pigmented macule area with hamster flank organ [1] came out at 5.50 ± 0.56 mm^2.

As for `CCCC/C=C\CCCCCCCC(=O)O` [myristoleic acid], in the assay on hamster flank organ [1], the “Inhibition (percent decrease in macule area vs androgen-treated macules)” value came out at 73% and the Pigmented macule area is given as 4.63 ± 0.66 mm^2.

With `O=C1C=CC(=C(c2ccc(O)c(O)c2)c2ccccc2S(=O)(=O)O)C=C1O` (mixture of isomers) [Pyrocatechol violet, pyrocatecholsulfonephthalein], the IC50 in assay [3] amounted to 100 µM.

Take `O=C1c2ccccc2C(=O)c2c1cc(S(=O)(=O)[O-])c(O)c2O.[Na+]` [Alizarin red S]: in assay [2] (100 μM compound), the “percent inhibition of 5α-reductase activity, whole-cell assay, Type 1” value worked out at 22%.

In the case of `O=c1c(O)c(-c2ccc(O)cc2O)oc2cc(O)cc(O)c12` [Morin], the inhibition at 100 µM in assay [3] was 33%; in assay [4] it was 6%.

In the case of `O=c1oc2c(O)c(O)cc3c(=O)oc4c(O)c(O)cc1c4c23` [Ellagic acid], in the assay with 5α-reductase, the IC50 was greater than 100 µM.
